Data on eight compounds can be found in patent US10919844B2, “Antibacterials and/or modulators of biofilm formation and methods of using the same” (Indiana University Research and Technology Corporation, priority 2015, dated 2021).

“Also recorded” adds a separate entry of the source.

The subject of one series is Pseudomonas aeruginosa. Put plainly: P. aeruginosa biofilm formation assay (K357 biofilm assay, crystal violet OD readout). The class given is cell-based. As to conditions: for activity in the Biofilm Assay: FIG. 23; for activity of purified sample in the biofilm assay: FIGS. 26-28; for activity in preliminary screens: FIG. 1, compounds in red. From the text: A straightforward biological assay was developed to provide for the study these important bacterial biofilm communities. This assay also provided an efficient means for screening for compounds that have an effect on bacterial growth and/or biofilm formation.
The racemic amino acid derivatives 1 (synthesized in row A of each Bill-Board) are then screened for biological activity (antibacterial activity in a Kirby-Bauer disc plate assay) and/or K357 laboratory (assay for biofilm formation by Pseudomonas aeruginosa).
Referring now to FIG. 3, reproducible P. aeruginosa Biofilm Assays were carried out using newly synthesized twenty-one “unnatural” amino acids. See George A. O'Toole, Microtiter Dish Biofilm Formation Assay, J. VIS EXP. 2011; (47): 2437, disclosures of which are incorporated by reference in its entirety to the extent that they are not inconsistent with the explicit teachings of this specification.
Referring to FIGS. 34-35, all newly synthesized compounds prepared according to the schemes described above were assayed for biofilm formation in multiplicate 24 well plates at a screening dose of 20 μg/mL using crystal violet optical density (OD) readings as the readout. Results were expressed as % biofilm formation relative to a control (control=bacteria alone=100% biofilm formation). The procedure for the biofilm assay was the same as that used by students in the K357 biofilm laboratory.
Referring now to FIGS. 36-38, all compounds assayed in either 96 well or 24 well plates at a screening dose of either 20 or 40 μg/mL, using a biofilm assay with crystal violet optical density (OD) readings as the readout. Results were expressed as % biofilm formation (control=bacteria alone=100% biofilm formation). The procedure for the biofilm assay was the same as that used by students in the K357 biofilm laboratory.

The nature of series [1]: water-solubility noted during extractive work-up. The class given is physicochemical. The conditions noted are these: basic aqueous phase, extraction with dichloromethane.

As to `NC(Cc1ccc(F)c(F)c1)C(=O)O` (stereo not shown) [3,4-F2, 2-Amino-3-(3,4-difluorophenyl)propanoic acid], in the series with Pseudomonas aeruginosa, the “activity in the Biofilm Assay” value was “showed activity”, the “potency in modulating/inhibiting biofilm formation (SAR studies)” value was “potent activity” and the “activity of purified sample in the biofilm assay” value (“activity of purified sample” for short) is “active in a dose dependent manner”.
As for `NC(=O)C(N)Cc1ccc(F)cc1` (stereo not shown) [4-fluorophenylalanine amide, 2-Amino-3-(4-fluorophenyl)propanamide], in the series on Pseudomonas aeruginosa, the “potency in modulating/inhibiting biofilm formation (SAR studies)” value is recorded as “very potent inhibitor”.
`NC(Cc1ccccc1F)C(=O)O` (stereo not shown) [Compound 2-F, 2-Amino-3-(2-fluorophenyl)propanoic acid]: in the series with Pseudomonas aeruginosa, the “activity in preliminary screens” value is listed as “showed activity”, the “activity in the Biofilm Assay” value is recorded as “showed activity”, the “potency in modulating/inhibiting biofilm formation (SAR studies)” value is listed as “potent activity” and the “activity of purified sample” value is “active in a dose dependent manner”. In addition, the “activity of un-purified samples in the K357 biofilm assay” value in the series on Pseudomonas aeruginosa is recorded as “active”.
As to `NC(Cc1cccc(F)c1)C(=O)O` (stereo not shown) [Compound 3-F, 2-Amino-3-(3-fluorophenyl)propanoic acid], in the series on Pseudomonas aeruginosa, the “activity in preliminary screens” value was “showed activity”, the “activity in the Biofilm Assay” value was “showed activity”, the “potency in modulating/inhibiting biofilm formation (SAR studies)” value is given as “potent activity” and the “activity of purified sample” value is “active in a dose dependent manner”.
With `NC(Cc1ccc(F)cc1)C(=O)O` (stereo not shown) [Compound 4-F, 2-Amino-3-(4-fluorophenyl)propanoic acid], in the series with Pseudomonas aeruginosa, the “activity in preliminary screens” value is listed as “showed activity”, the “activity in the Biofilm Assay” value is “showed activity”, the “potency in modulating/inhibiting biofilm formation (SAR studies)” value is on record as “potent activity” and the “activity of purified sample” value is “active in a dose dependent manner; also recorded: confirmed this activity”. Besides, in the series with Pseudomonas aeruginosa, the “activity of un-purified samples in the K357 biofilm assay” value was “active”. Moreover, the “potency in the biofilm assay compared with tobramycin” value with Pseudomonas aeruginosa (FIG. 24, comparator tobramycin) is “as potent as tobramycin”.
Consider `N[C@@H](Cc1ccc(I)cc1)C(=O)O` [Compound 4-I], for which, in the series with Pseudomonas aeruginosa, the “activity in preliminary screens” value is recorded as “showed activity”.
For the compound `NC(Cc1ccc(F)cc1)C(=O)NCCN1CCOCC1` (stereo not shown) [Compound 5n, 2-Amino-3-(4-fluorophenyl)-N-(2-morpholinoethyl)propanamide], the water-solubility entry in series [1] is “Appreciable water-solubility”.
On the same count and under the same terms, then `NC(Cc1ccc(F)cc1)C(=O)N1CCCC1` (stereo not shown) [Compound 5p, 2-Amino-3-(4-fluorophenyl)-1-(pyrrolidin-1-yl)propan-1-one], with “Appreciable water-solubility”.
